Experimental data taken from US10556945B2, “Antagonist antibodies directed against calcitonin gene-related peptide and methods using same” (Teva Pharmaceuticals International GmbH, priority 2014, dated 2020).
Marks after values point to notes of the source that are not given here.

Columns and labels:
[1] = test system: middle meningeal artery (MMA) dilation evoked by electrical field stimulation; assay: Dural artery (closed cranial window) assay; format: in vivo, rat
Experimental: Closed Cranial Window Model: The purpose of this experiment was to determine the acute effect of anti-CGRP antagonist antibodies and compare it with the acute effect of the CGRP receptor antagonist BIBN4096BS. Experiments were carried out as previously described (Williamson et al., Cephalalgia 17(4):518-24 (1997)) with the following modifications. Sprague Dawley rats (300-400 g) were anesthetized with 70 mg/kg i.p. pentobarbital. Anesthesia was maintained with 20 mg/kg/hr i.v. pentobarbital. Rats were cannulated through the jugular vein for delivery of all drugs. Blood pressure was monitored with a probe (mikro-tip catheter, Millar Instruments) threaded through the femoral artery into the abdominal aorta. The rats were tracheotomized and breathing rate was maintained at 75 breaths per minute at a volume of 3.5 mL. After fixating the head in a stereotactic instrument and removing the scalp, a 2×6 mm window in the left parietal area just lateral to the sagittal suture was made by thinning the bone with a dental drill. Using a micromanipulator, a platinum bipolar electrode was lowered onto the surface and covered with heavy mineral oil. Lateral to the electrode window another window of 5×6 mm was created and filled with heavy mineral oil through which the diameter of a branch of the middle meningeal artery (MMA) was continuously monitored with a CCD camera and a video dimension analyzer (Living Systems). The rats were rested for no less than 45 minutes after the preparation. A baseline response to electrical stimulation was established (15 V, 10 hz, 0.5 ms pulses, 30 seconds) and then rats were dosed i.v. with experimental compound (10 mg/kg mu7E9, 300 μg/kg BIBN4096BS or PBS 0.01% Tween 20). Additional electrical stimulations were done at 5 (BIBN4096BS), 30, 60, 90 and 120 minutes after dosing. All data was recorded using chart software (ADInstruments).
The purpose of this experiment was to determine if the anti CGRP antibody could still block electrically stimulated MMA dilation 7 days after dosing. Preparation of the rats was identical to the above described acute experiment (Example 6) with the following exceptions. […] It was impossible to establish a baseline dilation response to electrical stimulation prior to dosing as in the acute experiment so the antibody groups were compared to dilation of the MMA in a vehicle (PBS, 0.01% Tween 20) dosed control group. After the rats were allowed to rest for no less than 45 minutes the dura was electrically stimulated at 30 minute intervals. Stimulations were at 2.5V, 5V, 10V, 15V and 20V, all at 10 Hz, 0.5 ms pulses for 30 seconds.

[2] = test system: CGRP activity (skin blood flow after saphenous nerve stimulation); assay: Skin vasodilatation induced by stimulation of rat saphenous nerve; format: in vivo; details: for blood flow increase stimulated by electronic pulses on saphenous nerve: compared to vehicle
Experimental: To test antagonist activity of anti-CGRP antibodies, effect of the antibodies on skin vasodilatation by stimulation of rat saphenous nerve was tested using a rat model described previously. Escott et al., Br. J. Pharmacol. 110:772-776, 1993. In this rat model, electrical stimulation of saphenous nerve induces release of CGRP from nerve endings, resulting in an increase in skin blood flow. Blood flow in the foot skin of male Sprague Dawley rats (170-300 g, from Charles River Hollister) was measured after saphenous nerve stimulation. Rats were maintained under anesthesia with 2% isoflurane. Bretylium tosylate (30 mg/kg, administered i.v.) was given at the beginning of the experiment to minimize vasoconstriction due to the concomitant stimulation of sympathetic fibers of the saphenous nerve. Body temperature was maintained at 37° C. by the use of a rectal probe thermostatically connected to a temperature controlled heating pad. Compounds including antibodies, positive control (CGRP 8-37), and vehicle (PBS, 0.01% Tween 20) were given intravenously through the right femoral vein, except for the experiment shown in FIG. 3, the test compound and the control were injected through tail vein, and for experiments shown in FIGS. 2A and 2B, antibodies 4901 and 7D11 were injected intraperitoneally (IP). Positive control compound CGRP 8-37 (vasodilatation antagonist), due to its short half-life, was given 3-5 min before nerve stimulation at 400 nmol/kg (200 μl). Tan et al., Clin. Sci. 89:656-73, 1995. The antibodies were given in different doses (1 mg/kg, 2.5 mg/kg, 5 mg/kg, 10 mg/kg, and 25 mg/kg).
For experiments shown in FIGS. 2A and 2B, antibody 4901 (25 mg/kg), antibody 7D11 (25 mg/kg), or vehicle control (PBS with 0.01% Tween 20) was administered intraperitoneally (IP) 72 hours before the electrical pulse stimulation. For experiment shown in FIG. 3, antibody 4901 (1 mg/kg, 2.5 mg/kg, 5 mg/kg, or 25 mg/kg) or vehicle control (PBS with 0.01% Tween 20) was administered intravenously 24 hours before the electrical pulse stimulation. After administration of the antibodies or vehicle control, the saphenous nerve of the right hindlimb was exposed surgically, cut proximally and covered with plastic wrap to prevent drying. A laser Doppler probe was placed over the medio-dorsal side of the hindpaw skin, which is the region innervated by the saphenous nerve. Skin blood flow, measured as blood cell flux, was monitored with a laser Doppler flow meter. When a stable base-line flux (less than 5% variation) was established for at least 5 min, the nerve was placed over platinum bipolar electrodes and electrically stimulated with 60 pulses (2 Hz, 10 V, 1 ms, for 30 sec) and then again 20 minutes later. Cumulative change in skin blood flow was estimated by the area under the flux-time curve (AUC, which is equal to change in flux multiplied by change in time) for each flux response to electrical pulse stimulation. The average of the blood flow response to the two stimulations was taken. Animals were kept under anesthesia for a period of one to three hours.
For experiments shown in FIGS. 4A and 4B, saphenous nerve was exposed surgically before antibody administration. The saphenous nerve of the right hindlimb was exposed surgically, cut proximally and covered with plastic wrap to prevent drying. […] Skin blood flow, measured as blood cell flux, was monitored with a laser Doppler flow meter. […]

chronic migraine = assay: Clinical study of antibody G1 in chronic migraine
rat α-CGRP = biological target: T1, rat α-CGRP (Rattus norvegicus, UniProt P01256); assay: Biacore affinity of antibody G1 and variant Fabs to rat α-CGRP; format: binding; details: 37° C.; Fab; screening mode unless underlined
T1 construct: 1-37 of rat α-CGRP (WT); purchased GenScript Corporation or Global Peptide Services (custom order); host or cells: synthetic peptide
T1 sequence (P01256 83-119 limits assumed): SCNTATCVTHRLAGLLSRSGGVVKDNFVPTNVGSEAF
Experimental: Biacore assay for affinity determination. […] All Biacore assays were conducted in HBS-EP running buffer (10 mM HEPES pH 7.4, 150 mM NaCl, 3 mM EDTA, 0.005% v/v polysorbate P20). CGRP surfaces were prepared by diluting the N-biotinylated CGRP to a concentration of less than 0.001 mg/mL into HBS-EP buffer and injecting it across the SA sensor chip using variable contact times. Low capacity surfaces, corresponding to capture levels <50 response units (RU) were used for high-resolution kinetic studies, whereas high capacity surfaces (about 800 RU of captured CGRP) were used for concentration studies, screening, and solution affinity determinations. […] Samples were typically injected for 1 minute at 100 μL/min and dissociation times of at least 10 minutes were allowed. After each binding cycle, surfaces were regenerated with 25 mM NaOH in 25% v/v ethanol, which was tolerated over hundreds of cycles. […]
High-resolution analysis of binding interactions with extremely slow offrates. […] The association rate constant (kon) was determined by injecting a 2-fold titration series (in duplicate) spanning 550 nM-1 nM for 30 sec at 100 uL/min and allowing only a 30 sec dissociation phase. The dissociation rate constant (koff) was determined by injecting three concentrations (high, medium, and low) of the same titration series in duplicate for 30 sec and allowing a 2-hour dissociation phase. […]

[3] = 900 mg group (n = 85), Change from Baseline to Month 1
[4] = 900 mg group (n = 85), Change from Baseline to Month 2
[5] = 900 mg group (n = 85), Change from Baseline to Month 3
[6] = 675/225 mg group (n = 87), Change from Baseline to Month 1
[7] = 675/225 mg group (n = 87), Change from Baseline to Month 2
[8] = 675/225 mg group (n = 87), Change from Baseline to Month 3

NCCCC[C@H](NC(=O)[C@@H](Cc1cc(Br)c(O)c(Br)c1)NC(=O)N1CCC(N2Cc3ccccc3NC2=O)CC1)C(=O)N1CCN(c2ccncc2)CC1 [BIBN4096BS]
time after dosing within which MMA dilation is blocked ([1]; 300 μg/kg i.v.): ≤ 5 min | time by which the effect has completely disappeared ([1]; 300 μg/kg i.v.): ≤ 90 min | MMA dilation evoked by electrical field stimulation ([1]; 300 μg/kg i.v., acute): blocks

G1: anti-CGRP antagonist antibody produced by expression vectors ATCC PTA-6867 and PTA-6866; VH SEQ ID NO:1, VL SEQ ID NO:2; modified human IgG2 [Clone G1]
blood flow increase stimulated by electronic pulses on saphenous nerve ([2]; 1 mg/kg i.v., stimulation at 90 min): significantly inhibited | blood flow increase stimulated by electronic pulses on saphenous nerve ([2]; 10 mg/kg i.v., stimulation at 90 and 120 minutes): significantly inhibited | blood flow increases in the dorso-medial hindpaw skin evoked by saphenous nerve stimulation ([2]; 10 mg/kg or 3 mg/kg i.v., 24 hours or 7 days prior to stimulation, vs vehicle): significantly inhibited | EC50 at 24 hours (dose required for 50% maximal effect) ([2]; i.v. 24 hours before stimulation, curve fit): 1.3 mg/kg | EC50 at 7 days (dose required for 50% maximal effect) ([2]; i.v. 7 days before stimulation, curve fit): 0.8 mg/kg | MMA dilation evoked by electrical stimulation ([1]; 10 mg/kg and 3 mg/kg i.v., 7 days prior, 10 to 20 volts, vs vehicle): significantly blocked | Days using acute medications, change from baseline, mean (SE) (chronic migraine; [3]): −5.4 (0.7)** Days | Headache hours, change from baseline, mean (SE) (chronic migraine; [3]): −56.8 (7.3)^+ hours | M/S Headache Days (days with moderate to severe headaches), change from baseline, mean (SE) (chronic migraine; [3]): −5.7 (0.6)^+ Days | Migraine Days, change from baseline, mean (SE) (chronic migraine; [3]): −6.3 (0.7)^+ Days | Days using acute medications, change from baseline, mean (SE) (chronic migraine; [4]): −5.8 (0.7) Days | Headache hours, change from baseline, mean (SE) (chronic migraine; [4]): −66.2 (8.1)^+ hours | M/S Headache Days (days with moderate to severe headaches), change from baseline, mean (SE) (chronic migraine; [4]): −5.9 (0.6) Days | Migraine Days, change from baseline, mean (SE) (chronic migraine; [4]): −6.7 (0.7)^ Days | Headache hours, change from baseline, mean (SE) (chronic migraine; [5]): −67.5 (8.6)** hours | Migraine Days, change from baseline, mean (SE) (chronic migraine; [5]): −7.1 (0.8)* Days | Subjects with >50% Decrease in M/S Headache days (chronic migraine; 900 mg group, Month 1): 47 (55%)^+ N (%) | Subjects with >75% Decrease in M/S Headache days (chronic migraine; 900 mg group, Month 1): 28 (33%)^+ N (%) | Subjects with >50% Decrease in M/S Headache days (chronic migraine; 900 mg group, Month 2): 47 (55%)* N (%) | Subjects with >75% Decrease in M/S Headache days (chronic migraine; 900 mg group, Month 2): 26 (31%) N (%) | Subjects with >50% Decrease in M/S Headache days (chronic migraine; 900 mg group, Month 3): 47 (55%)^+ N (%) | Subjects with >75% Decrease in M/S Headache days (chronic migraine; 900 mg group, Month 3): 27 (32%)* N (%) | Days using acute medications, change from baseline, mean (SE) (chronic migraine; [6]): −5.3 (0.7)* Days | Headache hours, change from baseline, mean (SE) (chronic migraine; [6]): −44.1 (7.3)** hours | M/S Headache Days (days with moderate to severe headaches), change from baseline, mean (SE) (chronic migraine; [6]): −4.9 (0.6)** Days | Days using acute medications, change from baseline, mean (SE) (chronic migraine; [7]): −6.6 (0.7)* Days | Headache hours, change from baseline, mean (SE) (chronic migraine; [7]): −58.3 (8.1)* hours | M/S Headache Days (days with moderate to severe headaches), change from baseline, mean (SE) (chronic migraine; [7]): −5.8 (0.6) Days | Migraine Days, change from baseline, mean (SE) (chronic migraine; [7]): −6.6 (0.7) Days | Days using acute medications, change from baseline, mean (SE) (chronic migraine; [8]): −6.6 (0.7)* Days | Headache hours, change from baseline, mean (SE) (chronic migraine; [8]): −59.8 (8.6)* hours | M/S Headache Days (days with moderate to severe headaches), change from baseline, mean (SE) (chronic migraine; [8]): −6.0 (0.7)* Days | Migraine Days, change from baseline, mean (SE) (chronic migraine; [8]): −6.8 (0.8) Days | Subjects with >50% Decrease in M/S Headache days (chronic migraine; 675/225 mg group, Month 1): 36 (41%)* N (%) | Subjects with >75% Decrease in M/S Headache days (chronic migraine; 675/225 mg group, Month 1): 19 (22%)** N (%) | Subjects with >50% Decrease in M/S Headache days (chronic migraine; 675/225 mg group, Month 2): 42 (48%) N (%) | Subjects with >75% Decrease in M/S Headache days (chronic migraine; 675/225 mg group, Month 2): 26 (30%)* N (%) | Subjects with >50% Decrease in M/S Headache days (chronic migraine; 675/225 mg group, Month 3): 46 (53%)** N (%) | Subjects with >75% Decrease in M/S Headache days (chronic migraine; 675/225 mg group, Month 3): 25 (29%)* N (%) | Average number of headache hours at visits 2, 3 and 4 (chronic migraine; both treatment groups vs placebo): significant decrease | number of headache hours in subjects using prevention medications (chronic migraine; e.g. topiramate and amitriptyline or propranolol, relative to a placebo group): significant decrease

B1: M84: G1 variant: L1 R28N T30V; L2 A51H L56T; H2 E54N A57N; HC-FW3 L99T A100V (antibody, V domains shown)
VH: EVQLVESGGGLVQPGGSLRLSCAASGFTFSNYWISWVRQAPGKGLEWVAEIRSNSDNSATHYAEAVKGRFTISRDNAKNSLYLQMNSLRAEDTAVYYCTVYFDYGLAIQNYWGQGTLVTVSS
VL: EIVLTQSPATLSLSPGERATLSCKASKNVVTYVSWYQQKPGQAPRLLIYGHSNRYTGIPARFSGSGSGTDFTLTISSLEPEDFAVYYCSQSYNYPYTFGQGTKLEIK
α-rat koff (rat α-CGRP): 0.0176 s⁻¹
